Laboratory results from US12428428B2, “Tricyclic tetrahydroisoquinoline derivative, preparation method therefor and application thereof in medicine” (JIANGSU HENGRUI MEDICINE CO., LTD., priority 2020, dated 2025).

Columns and labels:
[1] = tested on: ERα Y537S mutant-expressing MCF7 cells; assay: Inhibition of proliferation of ERα mutant-expressing MCF7 cells; assay type: cell-based; settings: Homo sapiens, 144 h
Text: The mutant estrogen receptor α (ERα) Y537S of human ERα protein was obtained by site-directed mutagenesis in a two-primer PCR manner using the cDNA of wild-type ESR1 gene (Accession No. NM000125) as a template. The sequences of the primers used in the mutation are as follows (the underlined nucleotides are the sites of mutation): Y537S: F-AAGAACGTGGTGCCCCTCTCTGACCTGCTGCTGGAGATG (SEQ ID NO: 1); R-CATCTCCAGCAGCAGGTCAGAGAGGGGCACCACGTTCTT (SEQ ID NO: 2). The cDNA of the mutant ESR1 was cloned into the lentiviral vector of interest pCDH-CMV-MCS-EF1-Puro. The lentiviral plasmid bearing the mutant ESR1 gene sequence and the lentiviral packaging plasmid were then transfected into HEK-293T cells (ATCC, CRL-3216) by using Lipofectamine 3000 Transfection Reagent (ThermoFisher Scientific, Cat #L3000075). Forty-eight hours after transfection, the virus-bearing medium supernatant was filtered and ultracentrifuged to obtain a virus precipitate, which was then resuspended in an appropriate amount of medium. The suspension was added to MCF7 cells (ATCC, HTB-22), followed by the addition of polybrene at a final concentration of 8 μg/mL. The mixture was incubated overnight. Two days after transfection, 1 μg/mL puromycin was added to the cell culture liquid for resistance screening. About two weeks later, an MCF7 cell line capable of stably expressing the ERαY537S mutant was obtained.
The ERα mutant-expressing MCF7 cells were cultured in an MEM (GE Healthcare, SH30024.01) complete medium containing 10% fetal bovine serum. On the first day of the experiment, the cells were seeded into a 96-well plate with complete medium at a density of 3,000 cells/well to form 100 μL of cell suspension per well. The plate was incubated overnight in a cell incubator at 37° C. with 5% CO2. The following day the medium was removed, and 135 μL of an MEM incomplete medium containing 2% fetal bovine serum, and 15 μL of a test compound prepared at different concentrations with the incomplete medium were added to each well. The final concentrations of the compound were 9 concentration points obtained by 4-fold serial dilution from 100 nM. A blank control containing 0.5% DMSO was set. The plate was incubated in a cell incubator at 37° C. with 5% CO2 for 144 h. On day 8, the 96-well cell culture plate was taken out. 150 μL of CellTiter-Glo® Luminescent Cell Viability Assay (Promega, G7573) was added to each well. The plate was let stand at room temperature for 10 min, and the luminescence signal values was read using a multilabel microplate reader (PerkinElmer, VICTOR 3). The IC50 values for the inhibitory activity of the compounds were calculated according to the compound concentrations and the luminescence signal values and are shown in Table 3.

[2] = molecular target: ER (estrogen receptor) (Homo sapiens (Human), UniProt P03372); assay: Inhibition of binding of E to ER (MCF-7/ERE-luciferase reporter cells); assay type: cell-based; settings: MCF-7/ERE-luciferase cells, 0.1 nM estradiol, 24 h
Protocol: The compounds of the present disclosure can inhibit the binding of E (estrogen) to ER (estrogen receptor), thereby blocking the binding of the complex of E and ER to ERE (estrogen response element), and consequently the expression of downstream luciferase proteins. The inhibitory effects of the compounds of the present disclosure on the binding of E to ER was tested by using the following method.
An ERE was cloned upstream of the luciferase gene, and MCF-7/ERE-luciferase monoclonal cells were selected by transfection of MCF-7 (TCHu74, National Collection of Authenticated Cell Cultures). The MCF-7/ERE-luciferase cells were seeded into a 96-well plate with an MEM (hyclone, SH30024.01B) medium containing 10% charcoal stripped FBS (Moregate, FBSF), 1% sodium pyruvate (sigma, S8636), 1% non-essential amino acids (sigma, M7145) and 500 μg/mL G418 at a density of 30,000 cells/well and cultured at 37° C. with 5% CO2. 20 mM stock solutions of the drugs are prepared, serially diluted 10-fold with 100% DMSO, and then diluted 20-fold with the medium. After the cells were cultured for 24 h, the medium was removed. 0.1 nM estradiol (sigma, E2758) and 10 μL of a medium-diluted drug were added to each well, and DMSO was added to the control group. The mixtures were well mixed by gentle shaking. The cells were cultured in an incubator at 37° C. with 5% CO2 for 24 h, and then the cell culture liquid was removed, followed by the addition of 50 μL of a luciferase substrate (Promega, E6110) to each well. The plate was let stand at room temperature in the dark for 10-15 min, and the chemiluminescence signal values were determined.
The inhibitory effects of the compounds of the present disclosure on the binding of E to ER were tested through the above experiment. The chemiluminescence signal value was plotted against the compound concentration (in log form) using Graphpad Prism, and the IC50 values of the compounds were obtained.

Sequence of ER (estrogen receptor) (P03372 whole entry): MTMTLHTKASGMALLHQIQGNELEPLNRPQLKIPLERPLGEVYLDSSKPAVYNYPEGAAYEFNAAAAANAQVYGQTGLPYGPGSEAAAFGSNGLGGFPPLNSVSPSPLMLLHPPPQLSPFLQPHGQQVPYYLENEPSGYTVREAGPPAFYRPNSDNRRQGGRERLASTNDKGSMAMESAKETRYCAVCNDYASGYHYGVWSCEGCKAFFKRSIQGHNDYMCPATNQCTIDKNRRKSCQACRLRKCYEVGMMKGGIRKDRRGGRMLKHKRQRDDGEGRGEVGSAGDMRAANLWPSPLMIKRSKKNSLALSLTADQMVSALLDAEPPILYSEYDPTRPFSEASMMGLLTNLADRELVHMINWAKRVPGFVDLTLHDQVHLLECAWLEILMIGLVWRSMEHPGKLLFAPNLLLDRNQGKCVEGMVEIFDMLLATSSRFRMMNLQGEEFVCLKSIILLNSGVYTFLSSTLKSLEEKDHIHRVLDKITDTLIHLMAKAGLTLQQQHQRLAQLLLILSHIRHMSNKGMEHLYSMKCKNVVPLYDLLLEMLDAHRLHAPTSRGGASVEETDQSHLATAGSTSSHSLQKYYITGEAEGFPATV

Row | IC50 [1] [nM] | IC50 [2] [nM] | SMILES
1 | 1.38 | 0.14 | C[C@@H]1Cc2cc3c(cc2[C@@H](c2ccc(N[C@H]4CCN(CCCF)C4)cc2)N1CC(F)(F)F)OCO3 [Example 1, (S)-1-(3-fluoropropyl)-N-(4-((5R,7R)-7-methyl-6-(2,2,2-trifluoroethyl)-5,6,7,8-tetrahydro-[1,3]dioxolo[4,5-g]isoquinolin-5-yl)phenyl)pyrrolidin-3-amine]
2 | 0.78 | 0.1 | C[C@@H]1Cc2cc3c(cc2[C@@H](c2c(F)cc(N[C@H]4CCN(CCCF)C4)cc2F)N1CC(F)(F)F)OCO3 [Example 2, (S)—N-(3,5-difluoro-4-((5S,7R)-7-methyl-6-(2,2,2-trifluoroethyl)-5,6,7,8-tetrahydro-[1,3]dioxolo[4,5-g]isoquinolin-5-yl)phenyl)-1-(3-fluoropropyl)pyrrolidin-3-amine]
3 | 0.43 | 0.44 | C[C@@H]1Cc2cc3c(cc2[C@@H](c2ccc(N[C@H]4CCN(CCCF)C4)cc2)N1CC(F)(F)CO)OCO3 [Example 3, 2,2-Difluoro-3-((5R,7R)-5-(4-(((S)-1-(3-fluoropropyl)pyrrolidin-3-yl)amino)phenyl)-7-methyl-7,8-dihydro-[1,3]dioxolo[4,5-g]isoquinolin-6(5H)-yl)propan-1-ol]
4 | 0.89 | 0.37 | C[C@@H]1Cc2cc3c(cc2[C@@H](c2ccc(N[C@H]4CCN(CCCF)C4)cn2)N1CC(F)(F)CO)OCO3 [Example 4, 2,2-Difluoro-3-((5S,7R)-5-(5-(((S)-1-(3-fluoropropyl)pyrrolidin-3-yl)amino)pyridin-2-yl)-7-methyl-7,8-dihydro-[1,3]dioxolo[4,5-g]isoquinolin-6(5H)-yl)propan-1-ol]
5 | 0.07 | 0.05 | C[C@@H]1Cc2cc3c(cc2[C@@H](c2c(F)cc(N[C@H]4CCN(CCCF)C4)cc2F)N1CC(F)(F)CO)OCO3 [Example 5, 3-((5S,7R)-5-(2,6-difluoro-4-(((S)-1-(3-fluoropropyl)pyrrolidin-3-yl)amino)phenyl)-7-methyl-7,8-dihydro-[1,3]dioxolo[4,5-g]isoquinolin-6(5H)-yl)-2,2-difluoro-1-propanol]
6 | 0.82 | 0.27 | C[C@@H]1Cc2cc3c(cc2[C@@H](c2ccc(N[C@H]4CCN(CCCF)C4)cn2)N1CC(F)(F)F)OCO3 [Example 6, N—((S)-1-(3-fluoropropyl)pyrrolidin-3-yl)-6-((5S,7R)-7-methyl-6-(2,2,2-trifluoroethyl)-5,6,7,8-tetrahydro-[1,3]dioxolo[4,5-g]isoquinolin-5-yl)pyridin-3-amine]
7 | 1.35 | 0.46 | C[C@@H]1Cc2cc3c(cc2[C@@H](c2ncc(N[C@H]4CCN(CCCF)C4)cc2F)N1CC(F)(F)F)OCO3 [Example 9, 5-Fluoro-N—((S)-1-(3-fluoropropyl)pyrrolidin-3-yl)-6-((5S,7R)-7-methyl-6-(2,2,2-trifluoroethyl)-5,6,7,8-tetrahydro-[1,3]dioxolo[4,5-g]isoquinolin-5-yl)pyridin-3-amine]
8 | 0.71 | 0.35 | C[C@@H]1Cc2cc3c(cc2[C@@H](c2ncc(N[C@H]4CCN(CCCF)C4)cc2F)N1CC(F)(F)CO)OCO3 [Example 11, 2,2-Difluoro-3-((5S,7R)-5-(3-fluoro-5-(((S)-1-(3-fluoropropyl)pyrrolidin-3-yl)amino)pyridin-2-yl)-7-methyl-7,8-dihydro-[1,3]dioxolo[4,5-g]isoquinolin-6(5H)-yl)propan-1-ol]
9 | 3.49 | 1.13 | [2H]C1([2H])Oc2cc3c(cc2O1)[C@@H](c1ccc(N[C@H]2CCN(CCCF)C2)cn1)N(CC(F)(F)CO)[C@H](C)C3 [Example 12, 2,2-Difluoro-3-((5S,7R)-5-(5-(((S)-1-(3-fluoropropyl)pyrrolidin-3-yl)amino)pyridin-2-yl)-7-methyl-7,8-dihydro-[1,3]dioxolo[4,5-g]isoquinolin-6(5H)-yl-2,2-d2)propan-1-ol]
10 | 1.27 | 0.5 | C[C@@H]1Cc2cc3c(cc2[C@@H](c2ccc(NC4CN(CCCF)C4)cn2)N1CC(F)(F)CO)OCO3 [Example 14, 2,2-Difluoro-3-((5S,7R)-5-(5-((1-(3-fluoropropyl)azetidin-3-yl)amino)pyridin-2-yl)-7-methyl-7,8-dihydro-[1,3]dioxolo[4,5-g]isoquinolin-6(5H)-yl)propan-1-ol]
11 | 0.68 | 0.19 | C[C@@H]1Cc2cc3c(cc2[C@@H](c2c(F)cc(O[C@H]4CCN(CCCF)C4)cc2F)N1CC(F)(F)F)OCO3 [Example 15, (5S,7R)-5-(2,6-difluoro-4-(((S)-1-(3-fluoropropyl)pyrrolidin-3-yl)oxy)phenyl)-7-methyl-6-(2,2,2-trifluoroethyl)-5,6,7,8-tetrahydro-[1,3]dioxolo[4,5-g]isoquinoline]
12 | 2.19 | 0.43 | C[C@@H]1Cc2cc3c(cc2[C@@H](c2ccc(NC4CN(CCCF)C4)cn2)N1CC(F)(F)F)OCO3 [Example 17, N-(1-(3-fluoropropyl)azetidin-3-yl)-6-((5S,7R)-7-methyl-6-(2,2,2-trifluoroethyl)-5,6,7,8-tetrahydro-[1,3]dioxolo[4,5-g]isoquinolin-5-yl)pyridin-3-amine]
13 | 0.25 | 0.07 | C[C@@H]1Cc2cc3c(cc2[C@@H](c2ccc(NC4CN(CCCF)C4)cc2)N1CC(F)(F)CO)OCO3 [Example 18, 2,2-Difluoro-3-((5R,7R)-5-(4-((1-(3-fluoropropyl)azetidin-3-yl)amino)phenyl)-7-methyl-7,8-dihydro-[1,3]dioxolo[4,5-g]isoquinolin-6(5H)-yl)propan-1-ol]
14 | 0.43 | 0.07 | [2H]C1([2H])Oc2cc3c(cc2O1)[C@@H](c1ccc(N[C@H]2CCN(CCCF)C2)cc1)N(CC(F)(F)CO)[C@H](C)C3 [Example 19, 2,2-Difluoro-3-((5R,7R)-5-(4-(((S)-1-(3-fluoropropyl)pyrrolidin-3-yl)amino)phenyl)-7-methyl-7,8-dihydro-[1,3]dioxolo[4,5-g]isoquinolin-6(5H)-yl-2,2-d2)propan-1-ol]

Row | SMILES | IC50 [1] [nM] | IC50 [2] [nM]
15 | [2H]C1([2H])Oc2cc3c(cc2O1)[C@@H](c1ccc(NC2CN(CCCF)C2)cn1)N(CC(F)(F)CO)[C@H](C)C3 [Example 13, 2,2-Difluoro-3-((5S,7R)-5-(5-((1-(3-fluoropropyl)azetidin-3-yl)amino)pyridin-2-yl)-7-methyl-7,8-dihydro-[1,3]dioxolo[4,5-g]isoquinolin-6(5H)-yl-2,2-d2)propan-1-ol] | 1.36 | 
